Data reported in patent US20070286896A1, “Therapeutic or Diagnostic Drug for Inflammatory Disease Comprising Targeting Liposome” (NATIONAL INSTITUTE OF ADVANCED INDUSTRIAL SCIENCE AND …, priority 2003, published 2007).

Columns and labels:
Type in all cases: in vivo, DBA/1J mice
[1] = test system: Collagen type II induced arthritis (CIA) mice; experiment: Medical treatment of RA mice by intravenous administration of DDS liposomes
Description: (§1) A water solution of the collagen and the CFA were mixed at a volume ratio of 2:1 to prepare an emulsion containing 200 μg of the collagen per 100 μL thereof. This emulsion was subcutaneously injected into the bottom of the tails of the mice (Day 0). After 21 days from the administration (Day 21), a water solution of the collagen and the IFA were mixed at a volume ratio of 2:1 to prepare an emulsion containing 200 μg of the collagen per 100 μL thereof, and this emulsion was subcutaneously injected again into the bottom of the tails of the mice.
(§2) After the injection, the limbs of the mice were observed on a three times/week basis, and inflammation was quantitatively determined by giving it a point according to the following criteria: for each limb, normal: 0 point, mild inflammation or redness: 1 point, severe redness, dilatation, or reduced use: 2 points, and deformed palm, plantar region, or joint region: 3 points (0 point lowest, 12 points highest, per mouse). Inflammatory activity (hereinafter, referred to as IA) was determined by applying the obtained point to the following formula: Inflammatory activity (%)=points of all limbs/12×100.
Mice with arthritis received medical treatment by injecting a therapeutic drug to the tail veins thereof. The intravenous injection was performed on a twice/week basis for a period from Day 28 to Day 46. […]

[2] = test system: Collagen type II induced arthritis (CIA) mice; experiment: Medical treatment of RA mice by oral administration of DDS liposomes; details: oral three times/week Day 28 to Day 39; free Pred 100 μg, L-Pred 10 μg per administration
Description: as §1, §2
Mice with arthritis received medical treatment by orally administering a therapeutic drug to the mice. The oral administration was performed on a three times/week basis for a period from Day 28 to Day 39. […]

[3] = test system: Collagen type II induced arthritis (CIA) mice; experiment: Test for determining proper amount of prednisolone phosphate for RA mice; details: Day 28 to Day 46

In the case of `C[C@]12C=CC(=O)C=C1CC[C@@H]1[C@@H]2[C@@H](O)C[C@@]2(C)[C@H]1CC[C@]2(O)C(=O)COP(=O)(O)O` [prednisolone phosphate], the “Inflammatory activity (IA)” value ([1]; intravenous 100 μg/injection (200 μg/week) prednisolone phosphate, Day 37) is reported as “approximately 50%”, the “IA compared with other groups / progression of inflammation” value ([1]; intravenous twice/week Day 28 to Day 46, free Pred 100 μg/injection, liposomes 10 μg/injection) is reported as “no evident difference was observed between the IA of the free Pred group and the IA of the Control group” and the “difference in IA among the control, free Pred (until Day 32) and L-Pred groups” value [2] is reported as “no significant difference”. The “IA compared with control group” value ([3]; intravenous 250 μg/injection (500 μg/week)) was “No significant difference” and the “rise in IA / progression of the inflammation” value ([3]; intravenous 500 μg/injection (1000 μg/week)) was “a rise in IA was not observed, and the progression of the inflammation was suppressed”.
